In patent publication US5025015A, “Thioformamidines, and use as medicaments” (Pierre Fabre Medicament, priority 1988, dated 1991):

How the values were obtained:
[1] = system: ulcers with acetyl salicylic acid; assay: activity toward ulcers with acetyl salicylic acid quantified in accordance with the Pfeiffer scale, male rats; format: in vivo; settings: orally, acute
gastric secretion = gastric secretion by ligature of the pylorus using Shay's technique, male Sprague-Dawley rats; format: in vivo; settings: rat, intraduodenal route, 50 mg/kg, acute
Procedure: 1. […] Acute treatment by intraduodenal route in a dose of 50 mg/kg.

Compound: CN(C(=O)CSC1=NCCN1)c1ccc(Cl)cc1Cc1ccccc1 [Product 12]
- % Inhibition of the ulcer lesions ([1]; dose 40 mg/kg): 40%

Compound: CN(C(=O)CSC(=N)N)c1ccc(Cl)cc1C(=O)c1ccccc1Cl [Product 16]
- % Variation: decrease of the volume secreted (gastric secretion): 79%
- % Variation: increase of the intragastric pH (gastric secretion): 153%
- % Inhibition of the ulcer lesions ([1]; dose 50 mg/kg): 32%

Compound: N-methyl 2'-(orthochloro-α-hydroxybenzyl)-4'-chloro 2-[2-(Δ2-imidazolinyl)thio]acetanilide [Product 11]
- % Variation: decrease of the volume secreted (gastric secretion): 76%
- % Variation: increase of the intragastric pH (gastric secretion): 267%

Compound: CNC(=NCCSCc1nc[nH]c1C)NC#N [Cimetidine, N-Cyano-N'-methyl-N''-[2-[[(5-methyl-1H-imidazol-4-yl)methyl]thio]ethyl]guanidine, reference compound]
- % Variation: decrease of the volume secreted (gastric secretion): 47%
- % Variation: increase of the intragastric pH (gastric secretion): 90%
- % Inhibition of the ulcer lesions ([1]; dose 40 mg/kg): 46%

Compound: N-methyl 2-[2-(Δ2-imidazolinyl)thio]2'-benzoyl-4'-chloroacetanilide hydrochloride [Product 2]
- % Variation: decrease of the volume secreted (gastric secretion): 76%
- % Variation: increase of the intragastric pH (gastric secretion): 158%
- % Inhibition of the ulcer lesions ([1]; dose 40 mg/kg): 34%

Compound: CN(C(=O)CSc1ncc[nH]1)c1ccc(Cl)cc1C(=O)c1ccccc1 [Product 15]
- % Variation: decrease of the volume secreted (gastric secretion): 50%
- % Variation: increase of the intragastric pH (gastric secretion): 181%
- % Inhibition of the ulcer lesions ([1]; dose 50 mg/kg): 35%

Compound: CN(C(=O)CSc1ncc[nH]1)c1ccc(Cl)cc1C(=O)c1ccccc1Cl [Product 7]
- % Variation: decrease of the volume secreted (gastric secretion): 70%
- % Variation: increase of the intragastric pH (gastric secretion): 118%
- % Inhibition of the ulcer lesions ([1]; dose 40 mg/kg): 46%
